Reference: US8614231B2, “Immunosuppressor based on the blockage of TCR-Nck interaction” (Consejo Superior de Investigaciones Cientificas, priority 2008, dated 2013)
“Also recorded” adds a separate entry of the source.

Columns and labels:
[1] = system: human Raji lymphoblastoid B cell line; assay: Toxicity by propidium iodide exclusion and flow cytometry, Raji; format: cell-based; conditions: 48 hours, even at the highest dose
Protocol: (§1) Human Jurkat T lymphocyte cell line and human Raji lymphoblastoid B cell line were incubated with the indicated concentrations of CBM-1 for 48 hours. The toxicity of the compound was estimated by propidium iodide exclusion and flow cytometry. The two cell lines remained with 100% viability after 48 hours, even at the highest dose of the compound.

human T lymphocytes [2] = assay: Proliferation of human T lymphocytes stimulated with anti-CD3 antibodies (CFSE, flow cytometry); format: cell-based; conditions: for IC50: Homo sapiens, T-lymphocyte, 120 h, PBMNC, 5 days
Protocol: For the next round of selection of the compounds resulting from virtual screening with potential for blocking Nck-CD3ε interaction, PBMNC purified from healthy donors were labelled with fluorescence and incubated for 5 days on plates covered with anti-CD3 OKT3 antibodies in the presence of different doses of these compounds. Proliferation of T lymphocytes was evaluated by flow cytometry in accordance with the loss of green fluorescence (CFSE) within the CD8+ population.
(§2) PBMNCs purified from healthy donors were labelled with CFSE and incubated for 5 days on plates coated with anti-CD3 OKT3 antibody in the presence of various doses of the compounds indicated, among them CBM-1. The proliferation was evaluated by flow cytometry in accordance with the loss of green fluorescence (CFSE) within the CD4+ and CD8+ populations. A parallel experiment was performed on the proliferation of human IL2-dependent lymphoblasts. Purified PBMNC from healthy donors were stimulated with PHA for 48 hours and labelled with CFSE. The were subsequently cultured for 3 days in the presence of 100 IU/ml of human recombinant IL2 in the presence of concentrations of the compounds used, particularly CBM-1.

[3] = system: human IL2-dependent lymphoblasts; assay: Proliferation of human IL2-dependent lymphoblasts (IL2R-dependent proliferation); format: cell-based; conditions: at concentrations of 20 μM; 100 IU/ml IL2, 3 days
Protocol: as §2

[4] = system: Human Jurkat T lymphocyte cell line; assay: Toxicity by propidium iodide exclusion and flow cytometry, Jurkat; format: cell-based; conditions: 48 hours, even at the highest dose
Protocol: as §1

[5] = system: OT-I transgenic mouse primary lymphocytes; assay: IL2 production and antigen-induced proliferation of mouse T lymphocytes; format: cell-based
Text: Thus, Nck-CD3ε interaction as a molecular target for immunosuppressor development has been validated.

[6] = system: C57BL/6 mouse spleen cells; assay: Intracellular IFNγ expression by mouse CD4+ T cells stimulated with anti-CD3 + anti-CD28; format: cell-based; conditions: Lymphocyte, anti-CD3 + anti-CD28 48 hours, then brefeldin A 6 hours, read-out: IC50 generation of IFNγ-secreting Th1 lymphocytes
Text: Intracellular expression of IFNγ in response to stimulation with a mixture of anti-CD3 and anti-CD28.
The cells were first stained with CD4-PE and after fixing and rinsing they were stained with anti-IFNγ antibody.

human T lymphocytes [7] = assay: Cytokine secretion by human T lymphocytes (PBMNC) stimulated with anti-CD3 antibodies; format: cell-based; conditions: for IC50: Homo sapiens, T-lymphocyte, supernatant at 72 hours, anti-CD3
Protocol: Inhibition by CBM-1 of the secretion of cytokines by human T lymphocytes in response to stimulation with anti-CD3 antibodies. Peripheral blood mononuclear cells (PBMNC) purified from healthy donors were stimulated on plates coated with anti-CD3 OKT3 antibodies in the presence of various doses of CBM-1 for 72 hours. The concentration of the indicated cytokines in the supernatant (IL-10, IFN-γ, and TFN-β) was evaluated by multiparametric flow cytometry (BD cytometric bead array).
The effect of CBM-1 on the production of cytokines was measured in an assay in which human PBMNC were stimulated with anti-CD3 antibodies. The supernatant of these cells was collected at 72 hours and several cytokines were simultaneously measured by a flow cytometry assay.

T lymphocytes = assay: Inhibitory action on the activation of T lymphocytes (summary statement); format: cell-based; conditions: both in mice and humans; concentrations as low as
Text: It inhibited the production of IFNγ, IL-10 and TNFβ, as well as the generation of human cells that produce IFNγ in response to anti-CD3 and anti-CD28 in human lymphocytes stimulated with anti-CD3 and anti-CD28 antibodies.

SH3.1 domain of Nckα = biological target: T1, SH3.1 domain of Nckα (Homo sapiens, UniProt P16333); assay: NMR chemical displacements in the SH3.1 domain on compound binding; conditions: residues Trp41 and Tyr50/Phe53 participate
T1 construct: The three-dimensional structure of the SH3.1 domain of Nckα
Protocol: Displacements of the amino acid residues in the SH3.1 domain caused by the interaction with compound CBM-1. The lateral chains of the amino acids that changed their position after binding the compound are represented. The changes are consequent to the binding of compound CBM-1 to the pocket visualised in virtual screening.
The three-dimensional structure of the SH3.1 domain of Nckα, in the presence and in the absence of peptide 11R085, was determined in parallel (with the collaboration of the laboratory of Professors María Angeles Jiménez and Manuel Rico, of the Instituto de Química-Física Rocasolano, CSIC, Madrid) (FIG. 6). This enabled validation of the prediction of the structural computer model used for virtual screening. In addition, it allowed measurement of the chemical displacements caused to the structure by compound CBM-1 (FIG. 7).
The displacements of residues in the SH3.1 domain validate the prediction of the interaction of the SH3.1 domain with CBM-1 at a molecular level and are consistent with the model.

[8] = 72 hours, up to concentrations of 30 μM

c1ccc(C2=C(CN3CCCCC3)C(c3ccccc3)c3ccccc3O2)cc1 (centres unmarked) [CBM-1]
viability [1]: 100%
IC50 (human T lymphocytes [2]; anti-CD3 OKT3, CD4+ population, read-out: IC50 proliferation of CD4+ lymphocytes induced by anti-CD3): 2000 nM
IC50 (human T lymphocytes [2]; anti-CD3 OKT3, CD8+ population, read-out: IC50 proliferation of CD8+ lymphocytes induced by anti-CD3): 3000 nM
blocking activity on the proliferation of the lymphocytes (in words) (human T lymphocytes [2]; anti-CD3 OKT3, 5 days, compounds from virtual screening): highest activity and least toxicity; also recorded: best and least toxic
inhibition of the proliferation of human IL2-dependent lymphoblasts [3]: did not significantly inhibit
viability [4]: 100%
proliferation of antigen-dependent mouse T lymphocytes (in words) [5]: inhibited
release of IL2 (in words) ([5]; mouse T lymphocytes): inhibited
IC50 [6]: 800 nM
effect on the production of IL5 (human T lymphocytes [7]; [8]): did not show any effect; also recorded: no effect
effect on the production of IL6 (human T lymphocytes [7]; [8]): did not show any effect; also recorded: no effect
effect on the release of IL1-β (human T lymphocytes [7]; 72 hours, various doses): did not show any effect
IC50 (human T lymphocytes [7]; read-out: IC50 IFNγ production): 300 nM
IC50 (human T lymphocytes [7]; read-out: IC50 IL10 production): 200 nM
IC50 (human T lymphocytes [7]; read-out: IC50 TNFβ production): 200 nM
concentration with inhibitory action on the activation of T lymphocytes (T lymphocytes): ≥ 0.1 µM
binding to the SH3.1 domain (NMR) (SH3.1 domain of Nckα): binds to a hydrophobic pocket
